# Tests used:
# DU145 ITS+ cells = experiment: Plate colony formation assay, serum-free (ITS+)-grown DU145; format: cell-based, human; conditions: 14 days
# Text: (§1) Prostate cancer is one of the most common cancers in European and American males and has a high mortality rate (Landis et al, 1998; Rosenthal, 1998). Early disease is managed conservatively in Europe although in selected patients surgery is curative. In advanced disease, androgen ablation can produce symptomatic improvement, but the tumour often re-emerges in an androgen- independent and incurable form. One proposed treatment for androgen-independent prostate carcinoma is differentiation ther- apy, in which agents such as all-trans-retinoic acid (ATRA), 9-cis- retinoic acid and 1, 25-dihydroxyvitamin D3 (D3 ) are used to induce growth arrest, differentiation and sometimes apoptosis of the tumour cells (Liang et al, 1999; de Vos et al, 1997; Skowronski et al, 1994; Hedlund et al, 1997). ATRA and synthetic analogues exert their biological effects by binding to two families of retinoid receptors, the RARs (RAR, RAR and RAR) and the RXRs (RXR, RXR and RXR). These are ligand-dependent transcription factors of the steroid/thyroid hormone nuclear receptor superfamily (Chambon 1994; Boehm et al, 1995). Activated RARs bind to retinoic acid-responsive elements (RAREs) in the promoters of genes and thus regulate gene expression. They also antagonize the activity of the tran- scription factor AP1 and thereby down-regulate the expression of some AP1-activated genes (Nagpal et al, 1995). One approach to unravelling the contributions of RAR sub-types to these actions has been the development of synthetic retinoids with selective activities at individual RARs and RXRs. For example, the diaryl- acetylenic retinoids allow separation of transactivation and AP1 antagonism functions at RAR (Nagpal et al, 1995). Recently, compounds that are selective for particular RAR sub-types have been synthesized: these include both agonists and antagonists (Chandraratna, 1995; Teng et al, 1999; Johnson et al, 1999). The functional selectivity of these compounds may open the way to achieving differentiation or apoptosis of tumour cells with minimal systemic side effects (Chandraratna, 1995). […]
# [1] = system: LNCaP, PC3 and DU145 cells; experiment: Plate colony formation assay, stated over the three serum-free grown lines; format: cell-based, human
# Text: (§2) Prostate cancer is one of the most common cancers in European and American males and has a high mortality rate (Landis et al, 1998; Rosenthal, 1998). Early disease is managed conservatively in Europe although in selected patients surgery is curative. In advanced disease, androgen ablation can produce symptomatic improvement, but the tumour often re-emerges in an androgen- independent and incurable form. One proposed treatment for androgen-independent prostate carcinoma is differentiation ther- apy, in which agents such as all-trans-retinoic acid (ATRA), 9-cis- retinoic acid and 1, 25-dihydroxyvitamin D3 (D3 ) are used to induce growth arrest, differentiation and sometimes apoptosis of the tumour cells (Liang et al, 1999; de Vos et al, 1997; Skowronski et al, 1994; Hedlund et al, 1997). ATRA and synthetic analogues exert their biological effects by binding to two families of retinoid receptors, […]. These are ligand-dependent transcription factors of the steroid/thyroid hormone nuclear receptor superfamily (Chambon 1994; Boehm et al, 1995). Activated RARs bind to retinoic acid-responsive elements (RAREs) in the promoters of genes and thus regulate gene expression. They also antagonize the activity of the tran- scription factor AP1 and thereby down-regulate the expression of some AP1-activated genes (Nagpal et al, 1995). One approach to unravelling the contributions of RAR sub-types to these actions has been the development of synthetic retinoids with selective activities at individual RARs and RXRs. For example, the diaryl- acetylenic retinoids allow separation of transactivation and AP1 antagonism functions at RAR (Nagpal et al, 1995). Recently, compounds that are selective for particular RAR sub-types have been synthesized: these include both agonists and antagonists (Chandraratna, 1995; Teng et al, 1999; Johnson et al, 1999). The functional selectivity of these compounds may open the way to achieving differentiation or apoptosis of tumour cells with minimal systemic side effects (Chandraratna, 1995). Cell lines that are commonly used in the evaluation of investiga- tional agents for prostate cancer include LNCaP, DU-145 and PC- 3. […] These lines are relatively insensitive to growth inhibition and induction of apoptosis by ATRA and by synthetic agonists. […] Fenretinide (4HPR) induces apoptosis of LNCaP and of PC-3 cells at 1-5 M and 25 µM, respectively (Pienta et al, 1993; Heish and Wu, 1997). Pfahl and colleagues examined the growth inhibitory effects of a panel of receptor-selective retinoids against DU145 and PC-3 cells and achieved complete growth inhibition and induction of apoptosis between 1 M and 10 M (Lu et al, 1999). […] Antagonists of retinoic acid receptors (RARs) are potent growth inhibitors of prostate carcinoma cells LA Hammond1 , CH Van Krinks2 , J Durham2 , SE Tomkins2 , RD Burnett3 , EL Jones1 , RAS Chandraratna3 and G Brown2 Divisions of 1 Cancer Studies and of 2 Immunity and Infection, University of Birmingham Medical School, Edgbaston, Birmingham B15 2TT, UK and 3 Retinoid Research, Allergan Inc., Irvine, California, USA Summary Novel synthetic antagonists of retinoic acid receptors (RARs) have been developed. To avoid interference by serum retinoids when testing these compounds, we established serum-free grown sub-lines (>3 years) of the prostate carcinoma lines LNCaP, PC3 and DU145. […] A component(s) of serum and of LNCaP-conditioned medium diminishes the activity of antagonists: this factor is not the most likely candidates IGF-1 and EGF. In vitro studies of RAR antagonists together with data from RAR-null mice lead to the hypothesis that RAR-regulated gene transcription is necessary for the survival and maintenance of prostate epithelium. […]
# RARγ [2] = target: T1, RARγ (Homo sapiens, UniProt P13631); experiment: Binding to baculovirus-expressed RARγ; design: made in house; conditions: baculovirus-expressed receptor
# T1 sequence (P13631 1-454): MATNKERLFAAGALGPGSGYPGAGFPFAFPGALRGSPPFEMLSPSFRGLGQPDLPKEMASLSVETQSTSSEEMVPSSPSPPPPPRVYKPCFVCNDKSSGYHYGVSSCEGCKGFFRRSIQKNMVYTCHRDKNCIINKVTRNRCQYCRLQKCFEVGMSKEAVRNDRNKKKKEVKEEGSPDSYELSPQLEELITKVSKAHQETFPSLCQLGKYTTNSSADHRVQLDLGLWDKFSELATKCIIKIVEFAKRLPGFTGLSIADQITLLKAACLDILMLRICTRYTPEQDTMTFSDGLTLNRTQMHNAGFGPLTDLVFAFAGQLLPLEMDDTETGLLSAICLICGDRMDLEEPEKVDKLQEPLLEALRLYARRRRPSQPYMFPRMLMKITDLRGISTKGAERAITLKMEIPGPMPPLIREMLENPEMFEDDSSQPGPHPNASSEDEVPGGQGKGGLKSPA
# Text: as §2
# HL60 cells [3] = experiment: Clonal growth of single serum-free grown HL60 cells in microtitre wells; format: cell-based, human; conditions: 100 nM
# Text: as §2
# PC3 ITS+ cells = experiment: Plate colony formation assay, serum-free (ITS+)-grown PC3; format: cell-based, human; conditions: 14 days
# Text: as §1
# LNCaP ITS+ cells = experiment: Plate colony formation (clonal proliferation) assay, serum-free (ITS+)-grown LNCaP; format: cell-based, human; conditions: LNCaP, serum-free (ITS+), 14 days
# Text: as §2
# RARα [4] = target: T2, RARα (Homo sapiens, UniProt P10276); experiment: Binding to baculovirus-expressed RARα; design: made in house; conditions: baculovirus-expressed receptor
# T2 sequence (P10276 1-462): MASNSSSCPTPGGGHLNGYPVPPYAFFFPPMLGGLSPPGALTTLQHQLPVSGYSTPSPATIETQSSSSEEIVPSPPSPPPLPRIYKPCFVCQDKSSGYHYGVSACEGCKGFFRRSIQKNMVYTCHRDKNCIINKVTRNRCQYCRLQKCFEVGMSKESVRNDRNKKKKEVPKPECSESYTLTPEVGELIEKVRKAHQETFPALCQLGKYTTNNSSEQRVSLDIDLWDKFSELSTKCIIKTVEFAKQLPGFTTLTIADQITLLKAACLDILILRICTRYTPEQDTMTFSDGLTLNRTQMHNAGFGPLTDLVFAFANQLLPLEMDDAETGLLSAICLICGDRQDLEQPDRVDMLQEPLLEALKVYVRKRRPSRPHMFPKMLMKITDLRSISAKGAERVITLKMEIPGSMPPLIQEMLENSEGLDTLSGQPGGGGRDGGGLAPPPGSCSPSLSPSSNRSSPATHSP
# Text: as §2
# RARβ [5] = target: T3, RARβ (Homo sapiens, UniProt P10826); experiment: Binding to baculovirus-expressed RARβ; design: made in house; conditions: baculovirus-expressed receptor
# T3 sequence (P10826 1-455): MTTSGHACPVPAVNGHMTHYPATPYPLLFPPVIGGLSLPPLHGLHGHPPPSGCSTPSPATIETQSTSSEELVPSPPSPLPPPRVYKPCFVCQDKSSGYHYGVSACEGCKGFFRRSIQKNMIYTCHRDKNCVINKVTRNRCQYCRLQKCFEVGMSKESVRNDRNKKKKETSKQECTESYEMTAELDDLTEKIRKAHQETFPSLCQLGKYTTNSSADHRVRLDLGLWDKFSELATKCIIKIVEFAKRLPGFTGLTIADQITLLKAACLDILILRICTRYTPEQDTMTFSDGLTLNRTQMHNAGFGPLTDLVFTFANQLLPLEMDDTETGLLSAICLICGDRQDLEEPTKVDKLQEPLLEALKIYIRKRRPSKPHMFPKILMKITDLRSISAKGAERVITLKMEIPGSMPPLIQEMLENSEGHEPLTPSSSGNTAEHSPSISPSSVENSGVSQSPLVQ
# Text: as §2
# HL60 cells [6] = experiment: ATRA-induced differentiation of HL60 cells to neutrophils (nitroblue tetrazolium reduction); format: cell-based, human; conditions: antagonist at 100 nM added with 100 nM ATRA
# Text: as §1, with “1995).” for “1995). One approach to unravelling the contributions of RAR sub-types to these actions has been the development of synthetic retinoids with selective activities at individual RARs and RXRs. For example, the diaryl- acetylenic retinoids allow separation of transactivation and AP1 antagonism functions at RAR (Nagpal et al, 1995). Recently, compounds that are selective for particular RAR sub-types have been synthesized: these include both agonists and antagonists (Chandraratna, 1995; Teng et al, 1999; Johnson et al, 1999). The functional selectivity of these compounds may open the way to achieving differentiation or apoptosis of tumour cells with minimal systemic side effects (Chandraratna, 1995).”
# [7] = system: FBS-grown LNCaP, DU145 and PC3 cells; experiment: Plate colony formation assay, stated over the three FBS-grown lines; format: cell-based, human; conditions: 100 nM
# Text: as §1, with “1995).” for “1995). One approach to unravelling the contributions of RAR sub-types to these actions has been the development of synthetic retinoids with selective activities at individual RARs and RXRs. For example, the diaryl- acetylenic retinoids allow separation of transactivation and AP1 antagonism functions at RAR (Nagpal et al, 1995). Recently, compounds that are selective for particular RAR sub-types have been synthesized: these include both agonists and antagonists (Chandraratna, 1995; Teng et al, 1999; Johnson et al, 1999). The functional selectivity of these compounds may open the way to achieving differentiation or apoptosis of tumour cells with minimal systemic side effects (Chandraratna, 1995).”
# RARβ [8] = target: T3, RARβ; experiment: Transactivation by RARβ in doubly transfected CV-1 cells (MTV-TREp-LUC reporter); format: cell-based; design: expressed in transfected cells; host or cells: CV-1 cells; key to EC50 transactivation RARβ: NA: inactive; WA: weak partial agonist
# Text: as §1
# RARα [9] = target: T2, RARα; experiment: Transactivation by RARα in doubly transfected CV-1 cells (MTV-TREp-LUC reporter); format: cell-based; design: expressed in transfected cells; host or cells: CV-1 cells
# Text: as §1
# RARγ [10] = target: T1, RARγ; experiment: Transactivation by RARγ in doubly transfected CV-1 cells (MTV-TREp-LUC reporter); format: cell-based; design: expressed in transfected cells; host or cells: CV-1 cells; key to EC50 transactivation RARγ: NA: inactive; WA: weak partial agonist
# Text: as §1, with “1995).” for “1995). One approach to unravelling the contributions of RAR sub-types to these actions has been the development of synthetic retinoids with selective activities at individual RARs and RXRs. For example, the diaryl- acetylenic retinoids allow separation of transactivation and AP1 antagonism functions at RAR (Nagpal et al, 1995). Recently, compounds that are selective for particular RAR sub-types have been synthesized: these include both agonists and antagonists (Chandraratna, 1995; Teng et al, 1999; Johnson et al, 1999). The functional selectivity of these compounds may open the way to achieving differentiation or apoptosis of tumour cells with minimal systemic side effects (Chandraratna, 1995).”
Kd (RARγ [2]),Kd (RARα [4]),Kd (RARβ [5]),EC50 (RARβ [8]),EC50 (RARα [9]),EC50 (RARγ [10]),EC50 transactivation RARβ (RARβ [8]),EC50 transactivation RARγ (RARγ [10]),SMILES,IC50 (DU145 ITS+ cells),"inhibition of colony formation ([1]; 100 nM, three lines in ITS+ medium)","IC50 ([1]; stated over all three serum-free grown lines, read-out: concentration inhibiting colony formation by 50% (IC50))",viability of the single cells (HL60 cells [3]),effect on clonal growth of HL60 cells (HL60 cells [3]; 4 days),number of viable cells at day 4 (HL60 cells [3]; control 18),cloning efficiency (HL60 cells [3]; same as untreated),IC50 (PC3 ITS+ cells),IC50 (LNCaP ITS+ cells),percentage of mature cells (HL60 cells [6]),inhibition of colony formation [7]
0.057 µM,616 nM,41 nM,18 nM,> 1000 nM,42 nM,–,–,CC1(C)CCSc2ccc(C#Cc3ccc(C(=O)O)cn3)cc21 [AGN190299],–,–,–,–,–,–,–,–,–,–,–
> 5 µM,40 nM,> 5000 nM,–,130 nM,–,WA,WA,CC(C)N1CCC(C)(C)c2cc(C(=O)Nc3ccc(C(=O)O)c(F)c3)c(O)cc21 [AGN195153],–,–,–,–,–,–,–,–,–,–,–

SMILES,Kd (RARγ [2]),Kd (RARα [4]),Kd (RARβ [5]),EC50 (RARβ [8]),EC50 (RARα [9]),EC50 (RARγ [10]),EC50 transactivation RARβ (RARβ [8]),EC50 transactivation RARγ (RARγ [10]),IC50 (DU145 ITS+ cells),"inhibition of colony formation ([1]; 100 nM, three lines in ITS+ medium)","IC50 ([1]; stated over all three serum-free grown lines, read-out: concentration inhibiting colony formation by 50% (IC50))",viability of the single cells (HL60 cells [3]),effect on clonal growth of HL60 cells (HL60 cells [3]; 4 days),number of viable cells at day 4 (HL60 cells [3]; control 18),cloning efficiency (HL60 cells [3]; same as untreated),IC50 (PC3 ITS+ cells),IC50 (LNCaP ITS+ cells),percentage of mature cells (HL60 cells [6]),inhibition of colony formation [7]
Cc1ccc(C2=CC(C)(C)Oc3c(Br)cc(C(=O)Nc4ccc(C(=O)O)c(F)c4)cc32)cc1 [AGN194301],7.25 µM,3 nM,320 nM,–,–,–,–,–,201 nM,42-74%,~200 nM,> 95%,did not adversely affect,22,90-93%,235 nM,203 nM,1%,0-19%
